Measured values as given in PMC12442081, “Combating Fuel Biocontamination: Tailored Antimicrobial Peptides and an Innovative Delivery Strategy” (ACS Applied Bio Materials, 2025).
Where no end group is shown, it is not given here.

How the values were obtained:
[1] = system: Bacillus licheniformis (BL) ATCC 14580; format: cell-based; conditions: ATCC 14580
Procedure, shortened: (§1)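 Overnight LB cultures, 37 °C → mid-log → 5 × 10^5 CFU/mL; 1:1 with serially diluted peptides, o/n 37 °C, ambient air. MIC = lowest conc. inhibiting growth (plate reader). n = 3, mean reported.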

[2] = system: Dermacoccus nishinomiyaensis (DN) ATCC 29093; format: cell-based
Procedure, shortened: as §1

[3] = system: Kocuria rosea (KR) ATCC 186; format: cell-based
Procedure, shortened: as §1

[4] = system: Macrococcus caseolyticus (MC) ATCC 13548; format: cell-based
Procedure, shortened: as §1

[5] = system: Micrococcus yunnanensis (MY) ATCC 12698; format: cell-based
Procedure, shortened: as §1

[6] = system: Pseudomonas aeruginosa (PA) ATCC 39327; format: cell-based; conditions: ATCC 39327
Procedure, shortened: as §1

[7] = system: Roseomonas mucosa (RM) ATCC BAA-692; format: cell-based
Procedure, shortened: as §1

[8] = system: Sphingomonas paucimobilis (SP); format: cell-based
Procedure, shortened: as §1

[9] = system: Sheep red blood cells (RBCs); assay: Hemolysis assay; format: cell-based
Experimental: The RBCs were centrifuged at 1000g for 15 min at 4 °C to remove the buffy coat and washed 3 times with PBS. 100 μL of 4% (v/v) RBC was suspended in PBS and added into sterilized 96-well plates. 100 μL of peptide solution was added to the suspension of RBCs by serial dilution starting from 200 μM to […] and incubated overnight at 37 °C. Sample absorbance at 545 nm was measured to determine hemoglobin release after centrifuging the plate at 600 g for 10 min. The percentage of cell lysis was calculated using the following formula (eq ). , 1 %lysis=OD545(test)−OD545(blank)/OD545(totallysis)−OD545(blank)×100

[10] = HPLC retention time as a function of peptide hydrophobicity; format: physicochemical; conditions: chromatographic, Polaris 5 C18-A reverse phase, 0.1% TFA water / 0.1% TFA acetonitrile gradient, 30 min, 300 μM peptide
Procedure, shortened: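 Reverse-phase C18 HPLC used water and acetonitrile, each with 0.1% (v/v) TFA, under a constant gradient run for 30 min after injection. Samples were 300 μM peptide in acetonitrile–water (1:4).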

[11] = system: Bacillus licheniformis (BL); assay: Effectiveness of peptides on spiked fuel samples (aqueous layer); format: cell-based; set-up: key: (+) =1 (implying peptide activity in fuel environment); (X) = 0 (implying no activity in the desired range, indicated by microbial proliferation); Fuel x = -1(implying no activity in fuel environment); conditions: initial screening in spiked fuel
Procedure, shortened: (§2)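 Filter-sterilized fuel was mixed 1:1 (v/v) with BH medium, the organism was inoculated into the bottom aqueous phase, and peptides were added there at their MICs. Cultures were held aerobically at 30 °C for 30 days, with both layers plated on LBA at 7, 14, 21 and 30 days for viability.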

[12] = system: Dermacoccus nishinomiyaensis (DN); assay: as above; format: cell-based; set-up: key: (+) =1 (implying peptide activity in fuel environment); (X) = 0 (implying no activity in the desired range, indicated by microbial proliferation); Fuel x = -1(implying no activity in fuel environment); conditions: initial screening in spiked fuel
Procedure, shortened: as §2

Hormoconis resinae (HR) = assay: as above; format: cell-based; set-up: key: (+) =1 (implying peptide activity in fuel environment); (X) = 0 (implying no activity in the desired range, indicated by microbial proliferation); Fuel x = -1(implying no activity in fuel environment); conditions: initial screening in spiked fuel
Procedure, shortened: as §2

Kocuria rosea (KR) = assay: as above; format: cell-based; set-up: key: (+) =1 (implying peptide activity in fuel environment); (X) = 0 (implying no activity in the desired range, indicated by microbial proliferation); Fuel x = -1(implying no activity in fuel environment); conditions: initial screening in spiked fuel
Procedure, shortened: as §2

[13] = system: Macrococcus caseolyticus (MC); assay: as above; format: cell-based; set-up: key: (+) =1 (implying peptide activity in fuel environment); (X) = 0 (implying no activity in the desired range, indicated by microbial proliferation); Fuel x = -1(implying no activity in fuel environment); conditions: initial screening in spiked fuel
Procedure, shortened: as §2

[14] = system: Micrococcus yunnanensis (MY); assay: as above; format: cell-based; set-up: key: (+) =1 (implying peptide activity in fuel environment); (X) = 0 (implying no activity in the desired range, indicated by microbial proliferation); Fuel x = -1(implying no activity in fuel environment); conditions: initial screening in spiked fuel
Procedure, shortened: as §2

[15] = system: Pseudomonas aeruginosa (PA); assay: as above; format: cell-based; set-up: key: (+) =1 (implying peptide activity in fuel environment); (X) = 0 (implying no activity in the desired range, indicated by microbial proliferation); Fuel x = -1(implying no activity in fuel environment); conditions: initial screening in spiked fuel
Procedure, shortened: as §2

Roseomonas mucosa (RM) = assay: as above; format: cell-based; set-up: key: (+) =1 (implying peptide activity in fuel environment); (X) = 0 (implying no activity in the desired range, indicated by microbial proliferation); Fuel x = -1(implying no activity in fuel environment); conditions: initial screening in spiked fuel
Procedure, shortened: as §2

[16] = system: Sphingomonas paucimobilis (SP); assay: as above; format: cell-based; set-up: key: (+) =1 (implying peptide activity in fuel environment); (X) = 0 (implying no activity in the desired range, indicated by microbial proliferation); Fuel x = -1(implying no activity in fuel environment); conditions: initial screening in spiked fuel
Procedure, shortened: as §2

[17] = system: microbial clusters MY, KR, DN, MC, BL, RM, SP, PA, HR; assay: Broad-spectrum activity score (in-house scoring matrix); conditions: sum over 9 microbial clusters: (+) = 1, (X) = 0, Fuel x = -1
Procedure, shortened: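 Each peptide is scored per microbial cluster from its MIC/efficacy with fuel co-incubation: +1 = active in the fuel environment, 0 = no activity in the desired range (microbial proliferation), −1 = no activity in the fuel environment. The score is built from these per-cluster points.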

Sequence: ILPWKWPWWPFRR [P4]
- MIC [1]: 0.9 µM
- MIC [2]: 0.9 µM
- MIC [3]: 0.9 µM
- MIC [4]: 0.9 µM
- MIC [5]: 0.9 µM
- MIC [6]: 7.8 µM
- MIC [7]: 3.9 µM
- MIC [8]: 0.9 µM
- HL50, conc. to reach 50% cell lysis [9]: 10 µM
- R t, retention time of peptide on HPLC column as a function of peptide hydrophobicity [10]: 12.891 min
- activity considering MIC value/efficacy upon fuel co-incubation [11]: +
- activity considering MIC value/efficacy upon fuel co-incubation [12]: +
- activity considering MIC value/efficacy upon fuel co-incubation (Hormoconis resinae (HR)): X
- activity considering MIC value/efficacy upon fuel co-incubation (Kocuria rosea (KR)): +
- activity considering MIC value/efficacy upon fuel co-incubation [13]: +
- activity considering MIC value/efficacy upon fuel co-incubation [14]: +
- activity considering MIC value/efficacy upon fuel co-incubation [15]: X
- activity considering MIC value/efficacy upon fuel co-incubation (Roseomonas mucosa (RM)): +
- activity considering MIC value/efficacy upon fuel co-incubation [16]: +
- Score [17]: 7
